Assay results reported in patent US7211576B2, “Diaminothiazoles” (Hoffmann-La Roche Inc., priority 2004, dated 2007).

Assays:
[1] = target: human cyclin B-CDK1 (Homo sapiens, UniProt P06493); assay: FlashPlate kinase assay, cyclin B-CDK1; format: biochemical; settings: Rb protein substrate, 1 μM ATP, 33P-ATP, 30 minutes room temperature
[2] = system: HCT116, a colorectal carcinoma cell line; assay: Tetrazolium dye (MTT) proliferation assay; format: cell-based; settings: Homo sapiens, HCT-116; HCT116 cells, inhibition of cell proliferation
Description: Proliferation was evaluated by the tetrazolium dye assay according to the procedure of Denizot and Lang (Denizot, F. and Lang, R. J Immunol Methods 1986, 89, 271–277). The cell line used was HCT116, a colorectal carcinoma cell line obtained from the American Type Cell Culture Collection (ATCC; Rockville, Md.). The cells were grown in McCoy's 5A medium supplemented with 10% FCS and L-glutamine.
Cells were plated at the appropriate seeding density to give logarithmic growth over the course of the assay in a 96-well tissue culture plate. Plates were incubated overnight at 37° C. in a humidified incubator with 5% CO2. The next day, test compounds were serially diluted to four times the final concentration in the appropriate medium containing 1.2% DMSO. One-fourth final volume of each dilution was added in duplicate to the plates containing cells. The same volume of 1.2% DMSO in medium was added to a row of “control wells” such that the final concentration of DMSO in each well was 0.3%. Wells to which no cells were added served as the “blank.” Wells to which no inhibitor was added served as “no inhibitor control.” The plates were) returned to the incubator, and at set time points (determined by their growth curves) plates were analyzed as described below.
3-(4,5-dimethylthiazole-2-yl)-2,5-diphenyl-2H-tetrazolium bromide (thiazolyl blue; MTT; Sigma) was added to each well to yield a final concentration of 1 mg/ml. Plates were returned to the incubator for 2.5–3 hours at 37° C. The MTT-containing medium was removed and the resulting formazan metabolite was solubilized in 100% ethanol with shaking for 15 minutes at room temperature. Absorbance readings were taken in a microtiter plate reader (Dynatech and Molecular Devices plate readers were used interchangeably) at a wavelength of 570 nm with a 650 nm reference. Percent inhibition (% INH) is calculated by subtracting the absorbance of the blank well from all wells, then subtracting the ratio of the average absorbance of each test duplicate (SAVE) by the average of the controls (CAVE) from 1.00. The final number is then multiplied by 100 (% INH=(1.00−SAVE/CAVE)×100). The concentration at which 50% inhibition of cell proliferation is obtained (the IC50) is determined from the linear regression of a plot of the logarithm of the concentration versus percent inhibition.

[3] = target: human cyclin E-CDK2 (Homo sapiens, UniProt P24941); assay: FlashPlate kinase assay, cyclin E-CDK2; format: biochemical; settings: Rb protein substrate, 1 μM ATP, 33P-ATP, 30 minutes room temperature
[4] = target: human cyclin D1-CDK4 (Homo sapiens, UniProt P11802); assay: FlashPlate kinase assay, cyclin D1-CDK4; format: biochemical; settings: Rb protein substrate, 1 μM ATP, 33P-ATP, 30 minutes room temperature; read-out: CDK4 IC50
Chain of human cyclin D1-CDK4 (P11802 whole entry): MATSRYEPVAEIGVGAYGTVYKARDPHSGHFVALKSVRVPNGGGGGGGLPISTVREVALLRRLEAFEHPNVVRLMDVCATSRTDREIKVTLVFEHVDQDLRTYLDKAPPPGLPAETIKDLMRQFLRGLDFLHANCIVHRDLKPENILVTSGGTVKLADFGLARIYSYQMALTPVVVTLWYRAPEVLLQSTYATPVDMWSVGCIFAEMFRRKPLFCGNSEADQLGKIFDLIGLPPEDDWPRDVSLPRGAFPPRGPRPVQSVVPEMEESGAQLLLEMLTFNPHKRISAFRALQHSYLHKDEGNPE
Chain of human cyclin D1-CDK4 (P24385 whole entry partner): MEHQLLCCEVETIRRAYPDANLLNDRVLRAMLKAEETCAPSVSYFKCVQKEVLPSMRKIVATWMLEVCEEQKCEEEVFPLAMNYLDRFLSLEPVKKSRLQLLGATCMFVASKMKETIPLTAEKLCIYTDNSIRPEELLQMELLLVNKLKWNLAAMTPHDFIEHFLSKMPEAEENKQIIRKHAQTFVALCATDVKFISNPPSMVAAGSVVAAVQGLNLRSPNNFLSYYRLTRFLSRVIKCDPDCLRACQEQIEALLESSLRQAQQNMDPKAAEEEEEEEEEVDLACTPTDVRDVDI

Chain of human cyclin B-CDK1 (P06493 whole entry): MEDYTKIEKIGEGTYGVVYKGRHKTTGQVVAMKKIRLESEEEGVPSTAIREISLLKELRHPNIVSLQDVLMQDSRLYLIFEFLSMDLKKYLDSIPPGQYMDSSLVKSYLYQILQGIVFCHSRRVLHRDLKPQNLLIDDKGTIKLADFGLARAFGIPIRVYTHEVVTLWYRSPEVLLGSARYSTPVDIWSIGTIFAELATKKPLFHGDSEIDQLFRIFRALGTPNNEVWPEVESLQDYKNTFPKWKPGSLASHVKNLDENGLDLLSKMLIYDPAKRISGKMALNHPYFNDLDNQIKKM
Chain of human cyclin B-CDK1 (P14635 whole entry partner): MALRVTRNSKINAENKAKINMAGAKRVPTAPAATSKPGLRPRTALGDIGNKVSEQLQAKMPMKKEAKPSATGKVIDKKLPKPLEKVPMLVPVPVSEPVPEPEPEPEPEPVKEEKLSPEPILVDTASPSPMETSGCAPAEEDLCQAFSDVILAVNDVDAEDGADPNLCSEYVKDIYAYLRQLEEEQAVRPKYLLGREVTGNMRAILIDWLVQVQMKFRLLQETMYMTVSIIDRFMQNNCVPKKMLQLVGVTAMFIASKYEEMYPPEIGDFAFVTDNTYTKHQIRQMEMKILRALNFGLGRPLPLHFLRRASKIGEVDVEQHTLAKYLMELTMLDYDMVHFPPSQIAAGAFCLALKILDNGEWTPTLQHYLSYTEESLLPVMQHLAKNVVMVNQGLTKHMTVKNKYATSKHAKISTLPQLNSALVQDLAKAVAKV

Compound	IC50 [1] [µM]	IC50 [2] [µM]	IC50 [3] [µM]	IC50 [4] [µM]
Nc1nc(Nc2ccc(N3CCC(N4CCCCC4)CC3)cc2)sc1C(=O)c1ccc2c(c1)OCO2 [Example 32, [4-Amino-2-(4-[1,4′]bipiperidinyl-1′-yl-phenylamino)-thiazol-5-yl]-benzo[1,3]dioxol-5-yl-methanone]	1.91	6.64	5.74	0.029
CCc1cccc(C(=O)c2sc(Nc3ccc(N4CCC(N5CCOCC5)CC4)cc3)nc2N)c1 [Example 116, {4-Amino-2-[4-(4-morpholin-4-yl-piperidin-1-yl)-phenylamino]-thiazol-5-yl}-(3-ethyl-phenyl)-methanone]	5.59	2.55	0.75	0.015
CCOc1cccc(C(=O)c2sc(Nc3ccc(N4CCC(N5CCCC5)CC4)cc3)nc2N)c1 [Example 118, {4-Amino-2-[4-(4-pyrrolidin-1-yl-piperidin-1-yl)-phenylamino]-thiazol-5-yl}-(3-ethoxy-phenyl)-methanone]	1.53	4.15	3.24	0.031
CCCc1cc(C(=O)c2sc(Nc3ccc(N4CCC(N5CCCC5)CC4)cc3)nc2N)ccc1O [Example 123, {4-Amino-2-[4-(4-pyrrolidin-1-yl-piperidin-1-yl)-phenylamino]-thiazol-5-yl}-(4-hydroxy-3-propyl-phenyl)-methanone]	0.345	1.05	0.2	0.014
CN(C)C1CCN(c2ccc(Nc3nc(N)c(C(=O)c4cccc([N+](=O)[O-])c4)s3)cc2)CC1 [Example 92, {4-Amino-2-[4-(4-dimethylamino-piperidin-1-yl)-phenylamino]-thiazol-5-yl}-(3-nitro-phenyl)-methanone]	0.87	2.9	1.6	0.015
CCNC1CCN(c2ccc(Nc3nc(N)c(C(=O)c4cccc(F)c4)s3)cc2)C1 (centres unmarked) [Example 132, {4-Amino-2-[4-(3-ethylamino-pyrrolidin-1-yl)-phenylamino]-thiazol-5-yl}-(3-fluoro-phenyl)-methanone]	0.253	0.568	0.701	0.029
N#Cc1cccc(C(=O)c2sc(Nc3ccc(N4CCC(N5CCCC5)CC4)cc3)nc2N)c1 [Example 72, 3-{4-Amino-2-[4-(4-pyrrolidin-1-yl-piperidin-1-yl)-phenylamino]-thiazole-5-carbonyl}-benzonitrile]	0.702	2.5	2.05	0.017
CCc1cccc(C(=O)c2sc(Nc3ccc(N4CCC(N(C)C)CC4)cc3)nc2N)c1 [Example 115, {4-Amino-2-[4-(4-dimethylamino-piperidin-1-yl)-phenylamino]-thiazol-5-yl}-(3-ethyl-phenyl)-methanone]	2.8	1.24	1.04	0.01
CCNC1CCN(c2ccc(Nc3nc(N)c(C(=O)c4ccc(OC)c(F)c4)s3)cc2)C1 (centres unmarked) [Example 133, {4-Amino-2-[4-(3-ethylamino-pyrrolidin-1-yl)-phenylamino]-thiazol-5-yl}-(3-fluoro-4-methoxy-phenyl)-methanone]	1.86	1.02	3.27	0.066
CN(C)C1CCN(c2ccc(Nc3nc(N)c(C(=O)c4cccc(C5CC5)c4)s3)cc2)CC1 [Example 120, {4-Amino-2-[4-(4-dimethylamino-piperidin-1-yl)-phenylamino]-thiazol-5-yl}-(3-cyclopropyl-phenyl)-methanone]	1.87	3.91	2.58	0.023

The remaining molecules from weak to strong by IC50 [1], led by results:

IC50 [1] [µM]	IC50 [2] [µM]	IC50 [3] [µM]	IC50 [4] [µM]	Compound
5.19	4.22	5.31	0.02	CCc1cc(C(=O)c2sc(Nc3ccc(N4CCC(N5CCCC5)CC4)cc3)nc2N)ccc1F [Example 122, {4-Amino-2-[4-(4-pyrrolidin-1-yl-piperidin-1-yl)-phenylamino]-thiazol-5-yl}-(3-ethyl-4-fluoro-phenyl)-methanone]
3.22	1.31	0.989	0.009	CCc1cccc(C(=O)c2sc(Nc3ccc(N4CCC(N5CCCCC5)CC4)cc3)nc2N)c1 [Example 117, [4-Amino-2-(4-[1,4′]bipiperidinyl-1′-yl-phenylamino)-thiazol-5-yl]-(3-ethyl-phenyl)-methanone]
2.71	1.37	0.945	0.012	CCc1cccc(C(=O)c2sc(Nc3ccc(N4CCC(N5CCCC5)CC4)cc3)nc2N)c1 [Example 114, {4-Amino-2-[4-(4-pyrrolidin-1-yl-piperidin-1-yl)-phenylamino]-thiazol-5-yl}-(3-ethyl-phenyl)-methanone]
2.44	2.46	5.16	0.005	COc1cccc(C(=O)c2sc(Nc3ccc(N4CCC(N(C)C)CC4)cc3)nc2N)c1 [Example 45, {4-Amino-2-[4-(4-dimethylamino-piperidin-1-yl)-phenylamino]-thiazol-5-yl}-(3-methoxy-phenyl)-methanone]
1.61	6.02	3.45	0.019	Nc1nc(Nc2ccc(N3CCC(N4CCCC(O)C4)CC3)cc2)sc1C(=O)c1cccc(O)c1 (centres unmarked) [Example 81, {4-Amino-2-[4-(3-hydroxy-[1,4′]bipiperidinyl-1′-yl)-phenylamino]-thiazol-5-yl}-(3-hydroxy-phenyl)-methanone]
1.28	1.75	2.89	0.012	COc1ccc(C(=O)c2sc(Nc3ccc(N4CCC(N5CCCC5)CC4)cc3)nc2N)cc1F [Example 23]
1.15	3.37	6.1	0.028	CCNC1CCN(c2ccc(Nc3nc(N)c(C(=O)c4cccc(OC)c4)s3)cc2)CC1 [Example 135, {4-Amino-2-[4-(4-ethylamino-piperidin-1-yl)-phenylamino]-thiazol-5-yl}-(3-methoxy-phenyl)-methanone]
1	3.68	2.39	0.038	COc1ccc(C(=O)c2sc(Nc3ccc(N4CCC(N5CCCC5)CC4)cc3)nc2N)cc1[N+](=O)[O-] [Example 107, {4-Amino-2-[4-(4-pyrrolidin-1-yl-piperidin-1-yl)-phenylamino]-thiazol-5-yl}-(4-methoxy-3-nitro-phenyl)-methanone]
0.95	1.68	4.95	0.009	Nc1nc(Nc2ccc(N3CCC(N4CCCCC4)CC3)cc2)sc1C(=O)c1ccc2c(c1)OCCO2 [Example 33, [4-Amino-2-(4-[1,4′]bipiperidinyl-1′-yl-phenylamino)-thiazol-5-yl]-(2,3-dihydro-benzo[1,4]dioxin-6-yl)-methanone]
0.74	0.018	0.12	1.09	Nc1nc(Nc2ccc(N3CCC(N4CCCC(O)C4)CC3)cc2)sc1C(=O)c1cccc(F)c1 (centres unmarked) [Example 35, {4-Amino-2-[4-(3-hydroxy-[1,4′]bipiperidinyl-1′-yl)-phenylamino]-thiazol-5-yl}-(3-fluoro-phenyl)-methanone]
0.58	2.82	1.67	0.007	Nc1nc(Nc2ccc(N3CCC(N4CCCC4)CC3)cc2)sc1C(=O)c1cccc([N+](=O)[O-])c1 [Example 90, {4-Amino-2-[4-(4-pyrrolidin-1-yl-piperidin-1-yl)-phenylamino]-thiazol-5-yl}-(3-nitro-phenyl)-methanone]
0.216	2	2.89	0.017	Nc1nc(Nc2ccc(N3CCC(N4CCCC4)CC3)cc2)sc1C(=O)c1ccc2c(c1)OCO2 [Example 25, {4-Amino-2-[4-(4-pyrrolidin-1-yl-piperidin-1-yl)-phenylamino]-thiazol-5-yl}-benzo[1,3]dioxol-5-yl-methanone]
0.176	0.84	0.545	0.014	Nc1nc(Nc2ccc(N3CCC(N4CCCCC4)CC3)cc2)sc1C(=O)c1cccc(F)c1 [Example 30, [4-Amino-2-(4-[1,4′]bipiperidinyl-1′-yl-phenylamino)-thiazol-5-yl]-(3-fluoro-phenyl)-methanone]
